Reference: ChEMBL document CHEMBL4507282, “Data for DCP probe BI-1950” (2021)

Columns and labels:
[1] = molecular target: T1, 5-hydroxytryptamine receptor 3A (Homo sapiens) (UniProt P46098); test: 5HT3/HU Eurofins-Panlabs selectivity data (BI); details: Compound concentration 10.0 uM
T1 sequence (whole entry): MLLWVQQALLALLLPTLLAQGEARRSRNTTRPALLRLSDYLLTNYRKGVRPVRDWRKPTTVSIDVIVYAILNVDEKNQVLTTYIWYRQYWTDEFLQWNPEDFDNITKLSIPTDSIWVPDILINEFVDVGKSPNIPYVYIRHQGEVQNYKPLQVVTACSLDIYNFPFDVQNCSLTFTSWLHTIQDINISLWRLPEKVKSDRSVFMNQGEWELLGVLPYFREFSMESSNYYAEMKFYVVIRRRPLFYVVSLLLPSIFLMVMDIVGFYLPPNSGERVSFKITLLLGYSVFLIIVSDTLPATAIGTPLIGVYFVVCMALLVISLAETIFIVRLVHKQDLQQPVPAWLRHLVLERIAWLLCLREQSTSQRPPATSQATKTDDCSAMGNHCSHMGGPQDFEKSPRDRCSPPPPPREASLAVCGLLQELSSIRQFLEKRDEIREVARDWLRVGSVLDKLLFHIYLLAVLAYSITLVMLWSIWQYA

[2] = molecular target: 5-hydroxytryptamine receptor 4 (Cavia porcellus) (UniProt O70528); test: 5HT4/GPIG Eurofins-Panlabs selectivity data (BI); details: Compound concentration 10.0 uM
[3] = molecular target: Adrenergic receptor alpha-2 (Rattus norvegicus) (UniProt P22086+P19328+P22909); test: ALPHA2/R Eurofins-Panlabs selectivity data (BI); type: protein assay; details: Compound concentration 10.0 uM
[4] = molecular target: Voltage-dependent L-type calcium channel subunit alpha-1C (DHP site) (Rattus norvegicus, UniProt P22002); test: CA+/DHPSI/RA Eurofins-Panlabs selectivity data (BI); details: read-out: % Ctrl
[5] = molecular target: Voltage-dependent N-type calcium channel subunit alpha-1B (Rattus norvegicus) (UniProt Q02294); test: CA+/N/RA Eurofins-Panlabs selectivity data (BI); details: Compound concentration 10.0 uM
[6] = molecular target: D(1A) dopamine receptor (Homo sapiens) (UniProt P21728); test: D1/HU Eurofins-Panlabs selectivity data (BI); details: Compound concentration 10.0 uM
[7] = molecular target: D(1B) dopamine receptor (Homo sapiens) (UniProt P21918); test: D5/HU Eurofins-Panlabs selectivity data (BI); details: Compound concentration 10.0 uM
[8] = molecular target: Sodium-dependent dopamine transporter (Homo sapiens) (UniProt Q01959); test: DATRANS/H Eurofins-Panlabs selectivity data (BI); details: Compound concentration 10.0 uM
[9] = molecular target: Gamma-aminobutyric acid receptor subunit alpha-1 (Rattus norvegicus) (UniProt P62813); test: GABAA MUSCIMOL CENT Eurofins-Panlabs selectivity data (BI); details: Compound concentration 10.0 uM
[10] = molecular target: Sodium channel regulatory subunit beta-1 (Rattus norvegicus) (UniProt Q00954); test: NA+/SITE2/RA Eurofins-Panlabs selectivity data (BI)
[11] = molecular target: Opioid receptor (Rattus norvegicus) (UniProt P33533+P34975+P33535); test: OPIAT/NS Eurofins-Panlabs selectivity data (BI); type: protein assay; details: Compound concentration 10.0 uM
[12] = system: Tyrosine-protein kinase ABL1 (Homo sapiens), P00519 [F317I]; details: Compound concentration 1000.0 nM
[13] = system: Tyrosine-protein kinase ABL1 (Homo sapiens), P00519 [H396P]; details: Compound concentration 1000.0 nM
[14] = molecular target: Mitogen-activated protein kinase kinase kinase 5 (Homo sapiens) (UniProt Q99683); details: Compound concentration 1000.0 nM
[15] = molecular target: Calcium/calmodulin-dependent protein kinase kinase 2 (Homo sapiens) (UniProt Q96RR4); details: Compound concentration 1000.0 nM
[16] = molecular target: Dual specificity protein kinase CLK3 (Homo sapiens) (UniProt P49761); details: Compound concentration 1000.0 nM
[17] = molecular target: Death-associated protein kinase 2 (Homo sapiens) (UniProt Q9UIK4); details: Compound concentration 1000.0 nM
[18] = molecular target: Ephrin type-A receptor 4 (Homo sapiens) (UniProt P54764); details: Compound concentration 1000.0 nM
[19] = molecular target: Tyrosine-protein kinase JAK3 (Homo sapiens) (UniProt P52333); details: Compound concentration 1000.0 nM
[20] = system: Mast/stem cell growth factor receptor Kit (Homo sapiens), P10721 [V559D,V654A]; details: Compound concentration 1000.0 nM
[21] = system: Hepatocyte growth factor receptor (Homo sapiens), P08581 [Y1235D]; details: Compound concentration 1000.0 nM
[22] = molecular target: Serine/threonine-protein kinase 4 (Homo sapiens) (UniProt Q13043); details: Compound concentration 1000.0 nM
[23] = molecular target: Platelet-derived growth factor receptor beta (Homo sapiens) (UniProt P09619); details: Compound concentration 1000.0 nM
[24] = molecular target: Phosphatidylinositol 5-phosphate 4-kinase type-2 beta (Homo sapiens) (UniProt P78356); details: Compound concentration 1000.0 nM
[25] = molecular target: Protein kinase C epsilon type (Homo sapiens) (UniProt Q02156); details: Compound concentration 1000.0 nM
[26] = molecular target: Serine/threonine-protein kinase RIO1 (Homo sapiens) (UniProt Q9BRS2); details: Compound concentration 1000.0 nM
[27] = molecular target: Ribosomal protein S6 kinase alpha-6 (Homo sapiens) (UniProt Q9UK32); details: Compound concentration 1000.0 nM
[28] = molecular target: Serine/threonine-protein kinase SIK1 (Homo sapiens) (UniProt P57059); details: Compound concentration 1000.0 nM
[29] = molecular target: SNF-related serine/threonine-protein kinase (Homo sapiens) (UniProt Q9NRH2); details: Compound concentration 1000.0 nM
[30] = molecular target: Testis-specific serine/threonine-protein kinase 3 (Homo sapiens) (UniProt Q96PN8); details: Compound concentration 1000.0 nM
[31] = molecular target: Wee1-like protein kinase (Homo sapiens) (UniProt P30291); details: Compound concentration 1000.0 nM
[32] = molecular target: Beta-3 adrenergic receptor (Homo sapiens) (UniProt P13945); details: Compound concentration 10.0 uM
[33] = tissue or blood; type: tissue-based; details: Homo sapiens
[34] = molecular target: Alpha-2A adrenergic receptor (Homo sapiens) (UniProt P08913); details: Compound concentration 10.0 uM
[35] = molecular target: Alpha-1D adrenergic receptor (Homo sapiens) (UniProt P25100); details: Compound concentration 10.0 uM

Sequence of Voltage-dependent L-type calcium channel subunit alpha-1C (DHP site) (P22002 whole entry): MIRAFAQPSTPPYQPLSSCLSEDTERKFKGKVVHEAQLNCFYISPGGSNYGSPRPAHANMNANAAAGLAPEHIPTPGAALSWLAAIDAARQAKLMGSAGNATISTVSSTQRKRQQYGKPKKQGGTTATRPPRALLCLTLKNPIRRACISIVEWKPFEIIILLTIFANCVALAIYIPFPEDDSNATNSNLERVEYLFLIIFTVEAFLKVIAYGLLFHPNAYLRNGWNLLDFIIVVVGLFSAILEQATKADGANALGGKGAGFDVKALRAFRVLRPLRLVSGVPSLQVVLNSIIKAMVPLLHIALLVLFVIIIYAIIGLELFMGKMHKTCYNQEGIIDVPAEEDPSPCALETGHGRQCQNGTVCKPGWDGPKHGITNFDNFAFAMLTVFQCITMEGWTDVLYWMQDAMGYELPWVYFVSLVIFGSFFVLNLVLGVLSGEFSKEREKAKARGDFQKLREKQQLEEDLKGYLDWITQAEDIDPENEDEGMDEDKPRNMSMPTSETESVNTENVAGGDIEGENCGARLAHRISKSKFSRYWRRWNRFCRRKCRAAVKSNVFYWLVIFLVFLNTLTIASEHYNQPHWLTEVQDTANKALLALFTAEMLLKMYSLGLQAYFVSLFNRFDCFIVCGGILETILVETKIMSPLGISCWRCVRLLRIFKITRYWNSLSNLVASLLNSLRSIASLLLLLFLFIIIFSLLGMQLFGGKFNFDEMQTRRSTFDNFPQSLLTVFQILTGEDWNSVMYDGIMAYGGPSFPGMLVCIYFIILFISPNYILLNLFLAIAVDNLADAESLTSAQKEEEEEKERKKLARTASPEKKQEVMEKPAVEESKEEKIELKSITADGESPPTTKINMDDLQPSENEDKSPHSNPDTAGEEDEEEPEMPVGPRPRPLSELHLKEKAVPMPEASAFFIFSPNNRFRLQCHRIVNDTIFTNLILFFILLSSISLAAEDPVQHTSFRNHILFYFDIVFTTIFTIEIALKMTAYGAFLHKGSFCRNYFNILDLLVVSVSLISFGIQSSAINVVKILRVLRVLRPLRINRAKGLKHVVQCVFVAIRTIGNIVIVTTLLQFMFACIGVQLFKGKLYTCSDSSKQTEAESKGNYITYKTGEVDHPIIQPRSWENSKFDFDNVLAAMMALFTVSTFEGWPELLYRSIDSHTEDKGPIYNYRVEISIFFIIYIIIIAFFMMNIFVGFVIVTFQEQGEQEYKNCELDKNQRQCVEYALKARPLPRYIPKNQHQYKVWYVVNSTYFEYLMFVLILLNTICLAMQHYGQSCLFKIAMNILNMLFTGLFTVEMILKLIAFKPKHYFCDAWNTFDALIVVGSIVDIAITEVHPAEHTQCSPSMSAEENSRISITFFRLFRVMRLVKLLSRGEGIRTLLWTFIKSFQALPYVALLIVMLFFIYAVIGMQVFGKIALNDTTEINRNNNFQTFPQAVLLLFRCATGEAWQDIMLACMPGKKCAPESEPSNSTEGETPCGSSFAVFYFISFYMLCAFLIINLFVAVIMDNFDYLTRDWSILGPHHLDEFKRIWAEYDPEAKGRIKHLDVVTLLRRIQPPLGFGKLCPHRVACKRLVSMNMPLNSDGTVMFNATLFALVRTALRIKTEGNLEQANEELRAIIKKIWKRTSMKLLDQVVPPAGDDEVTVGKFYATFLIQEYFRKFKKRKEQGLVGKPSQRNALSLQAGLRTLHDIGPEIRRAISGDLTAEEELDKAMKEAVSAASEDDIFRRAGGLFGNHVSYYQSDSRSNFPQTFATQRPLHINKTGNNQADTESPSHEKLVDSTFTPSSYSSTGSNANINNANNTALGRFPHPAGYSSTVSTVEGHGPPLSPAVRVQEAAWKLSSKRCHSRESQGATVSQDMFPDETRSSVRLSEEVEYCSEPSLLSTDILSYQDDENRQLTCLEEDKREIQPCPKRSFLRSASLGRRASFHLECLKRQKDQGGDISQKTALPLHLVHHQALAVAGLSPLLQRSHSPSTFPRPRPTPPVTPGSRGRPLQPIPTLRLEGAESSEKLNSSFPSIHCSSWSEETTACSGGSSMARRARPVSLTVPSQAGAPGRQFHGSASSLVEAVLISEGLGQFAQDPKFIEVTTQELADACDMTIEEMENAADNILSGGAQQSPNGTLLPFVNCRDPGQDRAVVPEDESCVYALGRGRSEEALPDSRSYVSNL
Sequence of Sodium channel regulatory subunit beta-1 (Rattus norvegicus) (Q00954 whole entry): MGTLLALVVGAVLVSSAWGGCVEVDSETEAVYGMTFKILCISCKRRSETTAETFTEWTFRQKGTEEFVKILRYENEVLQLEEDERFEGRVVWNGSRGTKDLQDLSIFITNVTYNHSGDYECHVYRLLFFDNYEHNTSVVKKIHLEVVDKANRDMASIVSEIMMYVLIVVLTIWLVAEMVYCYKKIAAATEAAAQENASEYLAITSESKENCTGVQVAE
Sequence of Serine/threonine-protein kinase RIO1 (Homo sapiens) (Q9BRS2 whole entry): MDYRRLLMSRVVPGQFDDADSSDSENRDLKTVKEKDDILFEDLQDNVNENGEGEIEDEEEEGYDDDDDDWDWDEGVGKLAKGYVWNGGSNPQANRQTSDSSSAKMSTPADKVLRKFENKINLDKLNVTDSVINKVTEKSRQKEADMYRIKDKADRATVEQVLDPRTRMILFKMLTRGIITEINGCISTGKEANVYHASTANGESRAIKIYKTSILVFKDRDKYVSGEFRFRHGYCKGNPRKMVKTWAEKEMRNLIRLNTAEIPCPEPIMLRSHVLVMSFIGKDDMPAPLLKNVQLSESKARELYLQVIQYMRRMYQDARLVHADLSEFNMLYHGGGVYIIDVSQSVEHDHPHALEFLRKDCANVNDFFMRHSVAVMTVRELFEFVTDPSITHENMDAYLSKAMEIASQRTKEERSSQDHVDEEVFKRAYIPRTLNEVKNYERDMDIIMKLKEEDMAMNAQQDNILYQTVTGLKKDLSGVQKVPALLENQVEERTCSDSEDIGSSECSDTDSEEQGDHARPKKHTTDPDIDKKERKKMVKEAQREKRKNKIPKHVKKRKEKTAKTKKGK
Sequence of Testis-specific serine/threonine-protein kinase 3 (Homo sapiens) (Q96PN8 whole entry): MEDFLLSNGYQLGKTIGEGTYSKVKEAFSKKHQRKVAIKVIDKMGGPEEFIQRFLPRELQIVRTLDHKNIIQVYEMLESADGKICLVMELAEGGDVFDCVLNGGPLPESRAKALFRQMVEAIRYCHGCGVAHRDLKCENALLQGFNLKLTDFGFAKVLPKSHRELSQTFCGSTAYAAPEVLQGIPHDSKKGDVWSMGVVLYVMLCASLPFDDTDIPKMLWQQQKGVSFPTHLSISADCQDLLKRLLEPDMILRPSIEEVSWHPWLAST
Sequence of Phosphatidylinositol 5-phosphate 4-kinase type-2 beta (Homo sapiens) (P78356 whole entry): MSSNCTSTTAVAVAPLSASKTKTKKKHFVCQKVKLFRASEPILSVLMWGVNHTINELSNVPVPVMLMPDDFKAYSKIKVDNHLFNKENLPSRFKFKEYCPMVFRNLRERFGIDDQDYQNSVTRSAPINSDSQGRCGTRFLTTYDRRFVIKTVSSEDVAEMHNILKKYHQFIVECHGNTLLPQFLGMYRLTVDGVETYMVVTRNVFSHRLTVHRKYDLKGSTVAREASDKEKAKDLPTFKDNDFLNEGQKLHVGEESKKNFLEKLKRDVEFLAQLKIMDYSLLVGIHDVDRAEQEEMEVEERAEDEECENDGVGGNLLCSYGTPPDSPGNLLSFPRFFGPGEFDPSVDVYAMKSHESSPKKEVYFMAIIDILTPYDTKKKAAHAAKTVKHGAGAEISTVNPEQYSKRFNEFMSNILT
Sequence of Serine/threonine-protein kinase SIK1 (Homo sapiens) (P57059 whole entry): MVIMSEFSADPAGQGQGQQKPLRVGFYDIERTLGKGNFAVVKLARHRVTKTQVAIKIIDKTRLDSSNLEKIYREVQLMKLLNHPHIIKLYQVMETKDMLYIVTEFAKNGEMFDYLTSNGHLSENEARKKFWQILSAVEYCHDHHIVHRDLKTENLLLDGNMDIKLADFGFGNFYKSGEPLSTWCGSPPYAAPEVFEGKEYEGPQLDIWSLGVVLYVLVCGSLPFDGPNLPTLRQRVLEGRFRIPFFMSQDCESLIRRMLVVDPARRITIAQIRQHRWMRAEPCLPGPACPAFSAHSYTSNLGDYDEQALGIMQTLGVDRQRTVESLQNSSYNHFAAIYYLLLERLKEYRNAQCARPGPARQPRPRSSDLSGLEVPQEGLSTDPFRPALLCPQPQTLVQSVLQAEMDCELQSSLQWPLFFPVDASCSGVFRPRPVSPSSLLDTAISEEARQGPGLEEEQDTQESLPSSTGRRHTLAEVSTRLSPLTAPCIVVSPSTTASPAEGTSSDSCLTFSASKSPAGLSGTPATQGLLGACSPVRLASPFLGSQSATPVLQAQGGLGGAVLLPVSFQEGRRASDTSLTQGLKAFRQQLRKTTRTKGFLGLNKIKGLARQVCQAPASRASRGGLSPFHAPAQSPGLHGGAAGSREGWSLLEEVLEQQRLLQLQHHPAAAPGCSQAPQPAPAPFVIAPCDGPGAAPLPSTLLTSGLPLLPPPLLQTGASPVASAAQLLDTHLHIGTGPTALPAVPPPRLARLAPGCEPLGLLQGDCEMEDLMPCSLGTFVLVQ
Sequence of Calcium/calmodulin-dependent protein kinase kinase 2 (Homo sapiens) (Q96RR4 2-588 limits assumed): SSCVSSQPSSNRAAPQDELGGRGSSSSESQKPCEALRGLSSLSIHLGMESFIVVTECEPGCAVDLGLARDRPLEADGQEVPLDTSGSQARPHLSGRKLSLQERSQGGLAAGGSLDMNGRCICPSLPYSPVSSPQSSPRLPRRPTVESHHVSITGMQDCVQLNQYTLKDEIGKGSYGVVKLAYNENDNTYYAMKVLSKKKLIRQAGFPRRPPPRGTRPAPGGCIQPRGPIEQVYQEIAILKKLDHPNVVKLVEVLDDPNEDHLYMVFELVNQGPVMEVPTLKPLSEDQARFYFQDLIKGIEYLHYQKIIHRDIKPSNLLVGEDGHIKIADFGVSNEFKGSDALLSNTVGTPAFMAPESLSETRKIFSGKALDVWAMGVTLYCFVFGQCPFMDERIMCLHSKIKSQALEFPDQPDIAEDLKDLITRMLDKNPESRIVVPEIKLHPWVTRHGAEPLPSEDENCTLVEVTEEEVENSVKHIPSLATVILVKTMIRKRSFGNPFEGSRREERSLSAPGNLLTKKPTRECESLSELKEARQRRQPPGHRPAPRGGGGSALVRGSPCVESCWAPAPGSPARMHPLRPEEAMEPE

For `C[C@H](NC(=O)c1cnc2n1[C@](C)(Cc1ccc(C#N)cc1)C(=O)N2c1cc(Cl)c(F)c(Cl)c1)C(=O)NC1(c2ccccn2)CC1` [BI 1950], the residual activity [1] was 134%, the residual activity [2] was 83% and the residual activity [3] was 88%. For the same molecule, the activity at 0.03 µM ([4]; compound concentration 0.03 uM) was 97% (not active), the activity at 0.1 µM ([4]; compound concentration 0.1 uM) was 98% (not active) and the activity at 0.3 µM ([4]; compound concentration 0.3 uM) was 94% (not active). The activity at 1 µM ([4]; compound concentration 1 uM) was 81% (not active), the activity at 3 µM ([4]; compound concentration 3 uM) was 58% (not active) and the activity at 10 µM ([4]; compound concentration 10 uM) was 28%. It also gave a residual activity [5] of 102%, a residual activity [6] of 92% and a residual activity [7] of 86%. For the same molecule, the residual activity [8] was 67%, the residual activity [9] was 96% and the residual activity ([10]; Compound concentration 0.03 uM) was 103%. For the same molecule, the residual activity ([10]; Compound concentration 0.1 uM) was 86%, the residual activity ([10]; Compound concentration 0.3 uM) was 84% and the residual activity ([10]; Compound concentration 1.0 uM) was 75%. For the same molecule, the residual activity ([10]; Compound concentration 3.0 uM) was 67%, the residual activity ([10]; Compound concentration 10.0 uM) was 42% and the residual activity [11] was 78%. The residual activity [12] was 100%, the residual activity [13] was 83% and the residual activity [14] was 92%. For the same molecule, the residual activity [15] was 100%, the residual activity [16] was 96% and the residual activity [17] was 100%. For the same molecule, the residual activity [18] was 100%, the residual activity [19] was 100% and the residual activity [20] was 100%. For the same molecule, the residual activity [21] was 100%, the residual activity [22] was 100% and the residual activity [23] was 91%. For the same molecule, the residual activity [24] was 100%, the residual activity [25] was 100% and the residual activity [26] was 100%. The residual activity [27] was 100%, the residual activity [28] was 100% and the residual activity [29] was 100%. For the same molecule, the residual activity [30] was 100%, the residual activity [31] was 100% and the inhibition [32] was 12.4%.
`C[C@@]1(Cc2ccc(C#N)cc2)C(=O)N(c2cc(Cl)cc(Cl)c2)c2ncc(C(=O)NC3(c4nc(C5CCC5)no4)CC3)n21` [BI 9446] showed an IC50 [33] of over 1 µM, a residual activity [12] of 94% and a residual activity [13] of 100%. The residual activity [14] was 100%, the residual activity [15] was 100% and the residual activity [16] was 100%. The residual activity [17] was 84%, the residual activity [18] was 100% and the residual activity [19] was 100%. It also gave a residual activity [20] of 85%, a residual activity [21] of 100% and a residual activity [22] of 92%. For the same molecule, the residual activity [23] was 100%, the residual activity [24] was 97% and the residual activity [25] was 100%. It also gave a residual activity [26] of 100%, a residual activity [27] of 100% and a residual activity [28] of 100%. It also gave a residual activity [29] of 100%, a residual activity [30] of 100% and a residual activity [31] of 100%. It also gave an inhibition [34] of 12.1% and an inhibition [35] of 8.28%.
